Test results reported in article PMC6152192, “Novel Methylselenoesters as Antiproliferative Agents” (Molecules : A Journal of Synthetic Chemistry and Natural …, 2017).
Where “and” joins values, the source holds several entries; their conditions need not be identical. Identical values can stand only once.

Key:
Assay type in all cases: cell-based
[1] = system: MCF7 (mammary adenocarcinoma); assay: MTT viability assay, MCF7; conditions: MCF7, 72 h, MTT; for CC50: read-out: LC50 (the source's name)
Description: (§1) The novel compounds were tested against a panel of different cancer lines: PC-3 (prostate adenocarcinoma), MCF7 (mammary adenocarcinoma), HTB-54 (lung carcinoma), K-562 (chronic myelogenous leukemia) and HT-29 (colorectal adenocarcinoma). Two non-malignant cell lines, BEAS-2B (bronchial epithelial) and 184B5 (mammary epithelial) were also included to evaluate the toxicity of the novel synthesized compounds. The antiproliferative activity was measured with the [3-(4,5-dimethylthiazol-2-yl)-2,5-diphenyltetrazolium bromide] (MTT) assay after 72 h treatment. Six concentrations ranging from 0.1 to 100 μM were tested. MSA is largely known as the main CH3SeH putative precursor and was therefore included as positive control. The following parameters were calculated: GI50 (concentration which reduces the growth by 50%), TGI (concentration completely inhibiting growth) and LC50 (concentration that kills 50% of the cells).
(§2) All cells were purchased from the American Type Culture Collection (ATCC, Barcelona, Spain). HT-29 (colorectal adenocarcinoma), HTB-54 (grade III lung carcinoma), MCF7 (mammary adenocarcinoma), PC-3 (grade IV prostate adenocarcinoma) and K-562 (chronic myelogenous leukemia) were cultured in RPMI (Gibco, Madrid, Spain), 10% FBS (Gibco), 100 units/mL penicillin and 100 μg/mL streptomycin (Gibco). BEAS-2B cell line (normal epithelial lung) was cultured in DMEM (Gibco), 10% FBS, 100 units/mL penicillin and 100 μg/mL streptomycin. 184B5 (normal mammary gland) cell line was cultured in DMEM:F12 supplemented with 5% FBS, 1 × ITS (Lonza, Barcelona, Spain), 100 nM hydrocortisone (Sigma-Aldrich), 2 mM sodium pyruvate (Lonza), 20 ng/mL EGF (Sigma-Aldrich), 0.3 nM trans-retinoic acid (Sigma-Aldrich), 100 units/mL penicillin and 100 µg/mL streptomycin. Cells were cultured at 37 °C under 5% CO2.
(§3) Cell viability after treatment was assessed by the well-known 3-(4,5-dimethyl-thiazol-2-yl)-2,5-diphenyltetrazolium bromide (MTT, Sigma-Aldrich) assay. Briefly, 10,000 cells were seeded in 96-well plates, treated and incubated for 72 h. Dilutions of the compounds in cell medium were freshly prepared from a 0.01 M stock in DMSO. After treatment, 50 μL of MTT solution in PBS (2 mg/mL) were added and cells were incubated for 4 h. Medium was removed and 150 μL of DMSO was added to dissolve the formed formazan crystals. Absorbance was read at 550 nm in a microplate absorbance reader (Sunrise, Tecan, Männedorf, Switzerland).

HTB-54 (lung carcinoma) = assay: MTT viability assay, HTB-54; conditions: HTB-54, 72 h, MTT; for CC50: read-out: LC50 (the source's name)
Description: as §1, §2, §3

[2] = system: BEAS-2B (non-malignant bronchial epithelial); assay: MTT viability assay, BEAS-2B; conditions: BEAS-2B non-malignant, 72 h, MTT; for CC50: read-out: LC50 (the source's name)
Description: as §1, §2, §3

MCF7 cells [3] = assay: Cell cycle analysis (propidium iodide, Apo-Direct kit, flow cytometry); conditions: for concentration from which the increase of cells in G2/M phase was evident: MCF7, 24 h; for effect on cell cycle distribution: MCF7, increasing concentrations 24 h or time-course; for time of significant decrease in the G0/G1 phase / treatment time after which an increase in G2/M phase was found: MCF7, time-course, 15 μM compound 5 or 30 μM compound 15
Description: Cell cycle arrest is the target of many anticancer drugs, as it is the first step to decrease cell proliferation. To gain a better understanding of the mechanism of these compounds, the effect of compounds 5 and 15 on cell cycle distribution was analyzed. MCF7 cells were treated with increasing concentrations of both compounds for 24 h or with 15 μM 5 or 30 μM 15 for different times. The negative control was treated with vehicle, and camptothecin (6 μM) was used as a positive control. Samples were stained with propidium iodide using the Apo-Direct kit (BD Pharmingen, Madrid, Spain) and processed by flow cytometry.
3 × 10^6 or 2 × 10^6 MCF7 cells were seeded in 25 cm^2 flasks for treatments up to 24 h or 48 h, respectively. DMSO (vehicle) or the dissolved compounds were added 24 h after seeding and cells were incubated for different times at 37 °C under 5% CO2. Cell cycle and cell death were analyzed simultaneously with the Apo-Direct kit (BD Pharmingen, Madrid, Spain), following the manufacturer’s protocol. Briefly, cells were fixed in 1% paraformaldehyde for 45 min at 0 °C, washed with PBS and incubated for at least 30 min in 70% ethanol on ice. Cells were then stained both with FITC-dUTP (1 h, 37 °C) and propidium iodide (30 min, room temperature) and analyzed by flow cytometry using a Coulter Epics XL cytometer (Beckman Coulter, Brea, CA, USA).
Figure 4 Compounds 5 and 15 induce cell cycle arrest in G2/M phase in MCF7. MCF7 cells were treated with different concentrations of compound 5, 15 or vehicle (control) for 24 h or for different time periods. Cells were stained with propidium iodide with the Apo-Direct kit and analyzed by flow cytometry. (A) Quantification of cell cycle distribution after 24 h treatment with increasing concentrations of compound 5; (B) Representative experiment of A; (C) Quantification of cell cycle distribution after 24 h treatment with increasing concentrations of compound 15; (D) Representative experiment of C; (E) Cell cycle distribution after treatment with vehicle, 15 μM of compound 5 or 30 μM of compound 15 for different times. Results represent the mean ± SEM of at least three independent experiments performed in duplicate. * p < 0.05, ** p < 0.01.

MCF7 cells [4] = assay: Caspase and autophagy inhibitors assay (Z-VAD-FMK, wortmannin; TUNEL); conditions: MCF7, 50 μM Z-VAD-FMK 1 h pre-incubation, compound 5 25 μM or compound 15 30 μM, 48 h
Description: Se compounds induce different types of cell death, among which apoptosis and autophagy are the most common. To further elucidate the pathway through which compounds 5 and 15 trigger cell death, we used Z-VAD-FMK, a pan-caspase inhibitor and wortmannin, a PI3K inhibitor which blocks autophagy. MCF7 cells were pre-incubated for 1 h with 50 μM of Z-VAD-FMK or 100 nM wortmannin and co-incubated with compound 5 (25 μM), compound 15 (30 μM) or vehicle (control) for 48 h. Treated cells without inhibitors were also included.
2 × 10^6 MCF7 cells were seeded in 25 cm^2 flasks. After 24 h, cells were pre-treated with 50 μM of the pan-caspase inhibitor Z-VAD-FMK (BD Pharmingen) or 100 nM wortmannin (Santa Cruz Biotechnology, Heidelberg, Germany) for 1 h before co-incubating them with 25 μM of compound 5, 30 μM of compound 15 or vehicle (maximum amount of DMSO used in the treatments) for 48 h. Cells were collected and processed with the Apo-Direct kit as described previously.
Figure 6 Cell death induced by compounds 5 and 15 involves the caspases pathway. MCF7 cells were pre-incubated with 50 μM of Z-VAD-FMK or 100 nM wortmannin for 1 h before treating cells with compound 5 (25 μM), compound 15 (30 μM) or vehicle (control) for 48 h. Cells were stained with the Apo-Direct kit (TUNEL assay) and analyzed by flow cytometry. […]

Substance	GI50 [1] [µM]	TGI [1] [µM]	CC50 [1] [µM]	GI50 (HTB-54 (lung carcinoma))	TGI (HTB-54 (lung carcinoma)) [µM]	CC50 (HTB-54 (lung carcinoma)) [µM]	GI50 [2] [µM]	TGI [2] [µM]	CC50 [2] [µM]	concentration from which the increase of cells in G2/M phase was evident (MCF7 cells [3]) [µM]	effect on cell cycle distribution (MCF7 cells [3])	time of significant decrease in the G0/G1 phase (MCF7 cells [3]) [h]	treatment time after which an increase in G2/M phase was found (MCF7 cells [3]) [h]	decrease of cell death in the presence of the pan-caspase inhibitor Z-VAD-FMK (MCF7 cells [4]) [%]
Dimethyl 2,5-furandicarboselenoate [Compound 15]	1.8 ± 0.9	7.2 ± 1.9	57 ± 4	> 10 µM and 15.6 µM	46.0 ± 3.0	76.3 ± 1.1	2.6 ± 0.8	5.6 ± 0.9	8.6 ± 1.2	≥ 7	increased the percentage of cells in G2/M phase	16	8	14
Methyl 3-chlorothiophen-2-carboselenoate [Compound 5]	3.1 ± 0.9	6.9 ± 1.1	35.9 ± 4.4	4.9 ± 0.2 µM		61.5 ± 3.2	2.7 ± 0.5	5.3 ± 0.7	8 ± 1	≥ 15	increased the percentage of cells in G2/M phase	8	8	36
